Laboratory results as given in ChEMBL document CHEMBL1154793, “The lecanindoles, nonsteroidal progestins from the terrestrial fungus Verticillium lecanii 6144” (J Nat Prod, 2009).

How the values were obtained:
Progesterone receptor [1] = molecular target: T1, Progesterone receptor (Homo sapiens, UniProt P06401); test: Activation of progesterone receptor in human T47D cells up to 1000 nM after 20 hrs by PRE-tagged luciferase reporter gene assay; type: cell-based
T1 sequence (P06401 whole entry): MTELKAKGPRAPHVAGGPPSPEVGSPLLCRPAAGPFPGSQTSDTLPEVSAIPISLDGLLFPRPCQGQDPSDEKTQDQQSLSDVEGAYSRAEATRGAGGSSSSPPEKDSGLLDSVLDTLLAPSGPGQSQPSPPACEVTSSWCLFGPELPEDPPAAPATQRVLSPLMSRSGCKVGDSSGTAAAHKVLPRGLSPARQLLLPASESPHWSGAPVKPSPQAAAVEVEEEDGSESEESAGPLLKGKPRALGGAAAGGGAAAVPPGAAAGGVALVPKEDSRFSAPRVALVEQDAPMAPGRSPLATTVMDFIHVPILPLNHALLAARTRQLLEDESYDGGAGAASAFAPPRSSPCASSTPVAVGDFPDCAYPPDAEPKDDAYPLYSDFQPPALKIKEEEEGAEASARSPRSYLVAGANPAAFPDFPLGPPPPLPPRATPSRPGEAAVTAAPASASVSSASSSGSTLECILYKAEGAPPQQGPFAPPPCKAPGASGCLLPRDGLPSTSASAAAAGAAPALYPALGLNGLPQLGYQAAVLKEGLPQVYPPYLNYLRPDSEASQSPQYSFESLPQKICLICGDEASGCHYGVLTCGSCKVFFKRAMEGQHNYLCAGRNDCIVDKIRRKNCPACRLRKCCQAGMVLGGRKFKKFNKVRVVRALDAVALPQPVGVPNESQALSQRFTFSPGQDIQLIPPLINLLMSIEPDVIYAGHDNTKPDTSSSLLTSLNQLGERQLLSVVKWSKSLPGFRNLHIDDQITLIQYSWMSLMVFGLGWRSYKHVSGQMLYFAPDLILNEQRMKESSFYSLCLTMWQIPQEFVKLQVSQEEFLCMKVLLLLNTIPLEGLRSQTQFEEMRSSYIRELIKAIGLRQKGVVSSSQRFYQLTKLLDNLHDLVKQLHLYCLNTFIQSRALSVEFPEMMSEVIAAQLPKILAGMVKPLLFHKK

[2] = molecular target: T2, Progesterone receptor (Homo sapiens) (UniProt P06401); test: Activation of progesterone receptor in human T47D cells after 20 hrs by PRE-tagged luciferase reporter gene assay relative to control; type: cell-based
T2 sequence (whole entry): T1 sequence (P06401 whole entry)

Glucocorticoid receptor [3] = molecular target: T3, Glucocorticoid receptor (Homo sapiens, UniProt P04150); test: Antagonist activity at glucocorticoid receptor ligand binding domain expressed in african green monkey COS7 cells co-transfected with Gal4-LBD up to 10 uM by luciferase reporter gene assay; type: cell-based; conditions: cos-7
T3 sequence (P04150 whole entry): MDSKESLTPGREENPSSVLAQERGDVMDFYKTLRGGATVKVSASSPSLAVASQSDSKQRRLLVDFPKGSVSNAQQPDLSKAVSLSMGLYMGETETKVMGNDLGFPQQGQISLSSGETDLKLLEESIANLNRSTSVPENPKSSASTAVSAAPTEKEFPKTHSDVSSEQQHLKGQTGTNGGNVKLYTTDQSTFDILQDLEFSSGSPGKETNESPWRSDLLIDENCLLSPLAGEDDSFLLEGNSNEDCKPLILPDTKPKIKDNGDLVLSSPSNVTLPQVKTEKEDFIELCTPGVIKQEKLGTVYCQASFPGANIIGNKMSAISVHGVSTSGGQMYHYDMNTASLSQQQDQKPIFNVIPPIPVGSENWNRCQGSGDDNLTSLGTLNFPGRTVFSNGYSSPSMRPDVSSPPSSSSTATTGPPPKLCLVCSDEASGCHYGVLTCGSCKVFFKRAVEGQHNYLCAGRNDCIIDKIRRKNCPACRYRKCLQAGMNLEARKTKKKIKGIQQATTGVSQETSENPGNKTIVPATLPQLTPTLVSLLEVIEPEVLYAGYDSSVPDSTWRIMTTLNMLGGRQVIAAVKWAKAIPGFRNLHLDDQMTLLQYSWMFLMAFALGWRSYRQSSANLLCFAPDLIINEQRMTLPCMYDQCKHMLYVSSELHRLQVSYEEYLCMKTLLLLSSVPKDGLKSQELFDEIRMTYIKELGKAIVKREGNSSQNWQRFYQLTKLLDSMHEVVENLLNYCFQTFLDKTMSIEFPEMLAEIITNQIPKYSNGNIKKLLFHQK

Estrogen receptor [4] = molecular target: T4, Estrogen receptor (Homo sapiens, UniProt P03372); test: Antagonist activity at estrogen receptor alpha ligand binding domain expressed in african green monkey COS7 cells co-transfected with Gal4-LBD up to 10 uM by luciferase reporter gene assay; type: cell-based; conditions: cos-7
T4 sequence (P03372 whole entry): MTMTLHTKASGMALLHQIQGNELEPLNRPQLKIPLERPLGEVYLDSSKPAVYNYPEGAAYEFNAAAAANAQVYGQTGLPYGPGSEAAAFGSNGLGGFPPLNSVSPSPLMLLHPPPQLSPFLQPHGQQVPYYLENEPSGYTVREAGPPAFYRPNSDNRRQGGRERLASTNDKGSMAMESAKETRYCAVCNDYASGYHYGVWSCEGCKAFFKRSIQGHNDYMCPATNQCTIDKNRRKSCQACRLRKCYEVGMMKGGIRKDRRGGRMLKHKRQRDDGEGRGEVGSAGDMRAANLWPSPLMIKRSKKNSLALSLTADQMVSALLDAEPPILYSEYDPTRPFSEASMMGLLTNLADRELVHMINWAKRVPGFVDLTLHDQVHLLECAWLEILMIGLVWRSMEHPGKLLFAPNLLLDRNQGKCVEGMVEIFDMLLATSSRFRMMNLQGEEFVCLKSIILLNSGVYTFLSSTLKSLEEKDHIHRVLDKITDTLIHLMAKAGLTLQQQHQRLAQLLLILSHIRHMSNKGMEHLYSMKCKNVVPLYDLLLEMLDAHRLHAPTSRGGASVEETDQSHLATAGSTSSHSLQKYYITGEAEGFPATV

[5] = molecular target: T5, Estrogen receptor (Homo sapiens) (UniProt P03372); test: Antagonist activity at estrogen receptor alpha ligand binding domain expressed in african green monkey COS7 cells co-transfected with Gal4-LBD by luciferase reporter gene assay relative to control; type: cell-based; parameters: scale not given: the % may be the effect or the level left; conditions: COS-7
T5 sequence (whole entry): T4 sequence (P03372 whole entry)

Estrogen receptor [6] = molecular target: T4, Estrogen receptor
Glucocorticoid receptor [7] = molecular target: T3, Glucocorticoid receptor
Progesterone receptor [8] = molecular target: T1, Progesterone receptor; test: Displacement of progesterone from progesterone receptor in human T47D cells after 3 hrs; type: cell-based
Progesterone receptor [9] = molecular target: T1, Progesterone receptor; test: Displacement of [3H]progesterone from progesterone receptor in human T47D cells after 3 hrs by scintillation counting; type: cell-based
[10] = molecular target: T2, Progesterone receptor (Homo sapiens); test: Ratio of compound EC50 to progesterone EC50 for progesterone receptor in human T47D cells; type: cell-based
[11] = molecular target: T2, Progesterone receptor (Homo sapiens); test: Ratio of compound IC50 to progesterone IC50 for progesterone receptor in human T47D cells; type: cell-based
[12] = molecular target: T6, Glucocorticoid receptor (Homo sapiens) (UniProt P04150); test: Antagonist activity at glucocorticoid receptor ligand binding domain expressed in african green monkey COS7 cells co-transfected with Gal4-LBD by luciferase reporter gene assay relative to control; type: cell-based; parameters: scale not given: the % may be the effect or the level left; conditions: COS-7
T6 sequence (whole entry): T3 sequence (P04150 whole entry)

| Compound | EC50 (Progesterone receptor [1]) | Efficacy [2] | IC50 (Glucocorticoid receptor [3]) | IC50 (Estrogen receptor [4]) | Activity [5] | IC50 (Estrogen receptor [6]) | IC50 (Glucocorticoid receptor [7]) | IC50 (Progesterone receptor [8]) | IC50 (Progesterone receptor [9]) | Ratio EC50 [10] | Ratio IC50 [11] | Activity [12] |
| --- | --- | --- | --- | --- | --- | --- | --- | --- | --- | --- | --- | --- |
| CC1(C)C(=O)CC[C@]2(C)[C@@]3(C)c4[nH]c5ccccc5c4C[C@@H]3CC[C@@]12O [LECANINDOLE B] | Not Active | < 1% | Not Active | Not Active | – | – | – | – | – | – | – | – |
| CC1(C)[C@H](O)CC[C@]2(C)[C@@]3(C)c4[nH]c5ccccc5c4C[C@@H]3CC[C@@]12O [LECANINDOLE D] | – | 68% | – | – | 19% | > 10000 nM | > 1000 nM | 5.5 nM | 57.3 nM | 10 | 10 | 58% |
